Measured values published in ChEMBL document CHEMBL1136490, “Synthesis of non-immunosuppressive cyclophilin-Binding cyclosporin A derivatives as potential anti-HIV-1 drugs” (Bioorg Med Chem Lett, 2003).

Experiments:
[1] = molecular target: Peptidyl-prolyl cis-trans isomerase A (Homo sapiens, UniProt P62937); experiment: Immunosuppressive activity was measured by inhibition of the IL-2 production in Jurkat cells.; type: functional, cell-based
[2] = molecular target: Human immunodeficiency virus type 1 reverse transcriptase (Human immunodeficiency virus 1, UniProt Q72547); experiment: In vitro inhibitory activity against HIV-1 RT in CEM4 cell line; type: cell-based

Sequence of Peptidyl-prolyl cis-trans isomerase A (P62937 whole entry): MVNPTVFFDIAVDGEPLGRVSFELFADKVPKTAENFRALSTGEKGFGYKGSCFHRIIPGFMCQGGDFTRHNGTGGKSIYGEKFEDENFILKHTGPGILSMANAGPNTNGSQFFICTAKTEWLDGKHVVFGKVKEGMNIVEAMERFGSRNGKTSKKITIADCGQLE

Row | IC50 [1] [nM] | IC50 [2] [nM] | SMILES
1 | 15 | 2.5 | C/C=C/C[C@@H](C)[C@@H](O)[C@H]1C(=O)N[C@@H](CC)C(=O)N(C)[C@H](SCCN(CC)CC)C(=O)N(C)[C@@H](CC(C)C)C(=O)N[C@@H](C(C)C)C(=O)N(C)[C@@H](CC(C)C)C(=O)N[C@@H](C)C(=O)N[C@H](C)C(=O)N(C)[C@@H](CC(C)C)C(=O)N(C)[C@@H](CC(C)C)C(=O)N(C)[C@@H](C(C)C)C(=O)N1C
2 | 47 | 35 | C/C=C/C[C@@H](C)[C@@H](O)[C@H]1C(=O)N[C@@H](CC)C(=O)N(C)[C@H](SCCN(C)C)C(=O)N(C)[C@@H](CC(C)C)C(=O)N[C@@H](C(C)C)C(=O)N(C)[C@@H](CC(C)C)C(=O)N[C@@H](C)C(=O)N[C@H](C)C(=O)N(C)[C@@H](CC(C)C)C(=O)N(C)[C@@H](CC(C)C)C(=O)N(C)[C@@H](C(C)C)C(=O)N1C
3 | 882 | 19.5 | C/C=C/C[C@@H](C)[C@@H](O)[C@H]1C(=O)N[C@@H](CC)C(=O)N(C)[C@H](SCCN2CCCCC2)C(=O)N(C)[C@@H](CC(C)(C)O)C(=O)N[C@@H](C(C)C)C(=O)N(C)[C@@H](CC(C)C)C(=O)N[C@@H](C)C(=O)N[C@H](C)C(=O)N(C)[C@@H](CC(C)C)C(=O)N(C)[C@@H](CC(C)C)C(=O)N(C)[C@@H](C(C)C)C(=O)N1C
4 | 1570 | 43 | C/C=C/C[C@@H](C)[C@@H](O)[C@H]1C(=O)N[C@@H](CC)C(=O)N(C)[C@H](SCCN(C)C(C)(C)C)C(=O)N(C)[C@@H](CC(C)(C)O)C(=O)N[C@@H](C(C)C)C(=O)N(C)[C@@H](CC(C)C)C(=O)N[C@@H](C)C(=O)N[C@H](C)C(=O)N(C)[C@@H](CC(C)C)C(=O)N(C)[C@@H](CC(C)C)C(=O)N(C)[C@@H](C(C)C)C(=O)N1C
5 | 61 | 19.5 | C/C=C/C[C@@H](C)[C@@H](O)[C@H]1C(=O)N[C@@H](CC)C(=O)N(C)[C@H](SCCN(C)C(C)C)C(=O)N(C)[C@@H](CC(C)C)C(=O)N[C@@H](C(C)C)C(=O)N(C)[C@@H](CC(C)C)C(=O)N[C@@H](C)C(=O)N[C@H](C)C(=O)N(C)[C@@H](CC(C)C)C(=O)N(C)[C@@H](CC(C)C)C(=O)N(C)[C@@H](C(C)C)C(=O)N1C
6 | 277 | 24 | C/C=C/C[C@@H](C)[C@@H](O)[C@H]1C(=O)N[C@@H](CC)C(=O)N(C)[C@H](SCCN(C)C(C)(C)C)C(=O)N(C)[C@@H](CC(C)C)C(=O)N[C@@H](C(C)C)C(=O)N(C)[C@@H](CC(C)C)C(=O)N[C@@H](C)C(=O)N[C@H](C)C(=O)N(C)[C@@H](CC(C)C)C(=O)N(C)[C@@H](CC(C)C)C(=O)N(C)[C@@H](C(C)C)C(=O)N1C
7 | 959 | 80 | C/C=C/C[C@@H](C)[C@@H](O)[C@H]1C(=O)N[C@@H](CC)C(=O)N(C)[C@H](SCCO)C(=O)N(C)[C@@H](CC(C)(C)O)C(=O)N[C@@H](C(C)C)C(=O)N(C)[C@@H](CC(C)C)C(=O)N[C@@H](C)C(=O)N[C@H](C)C(=O)N(C)[C@@H](CC(C)C)C(=O)N(C)[C@@H](CC(C)C)C(=O)N(C)[C@@H](C(C)C)C(=O)N1C
8 | 3 | 65.5 | C/C=C/C[C@@H](C)[C@@H](O)[C@H]1C(=O)N[C@@H](CC)C(=O)N(C)[C@H](SC)C(=O)N(C)[C@@H](CC(C)C)C(=O)N[C@@H](C(C)C)C(=O)N(C)[C@@H](CC(C)C)C(=O)N[C@@H](C)C(=O)N[C@H](C)C(=O)N(C)[C@@H](CC(C)C)C(=O)N(C)[C@@H](CC(C)C)C(=O)N(C)[C@@H](C(C)C)C(=O)N1C
9 | 97 | 72 | C/C=C/C[C@@H](C)[C@@H](O)[C@H]1C(=O)N[C@@H](CC)C(=O)N(C)[C@H](SCCN2CCCCC2)C(=O)N(C)[C@@H](CC(C)C)C(=O)N[C@@H](C(C)C)C(=O)N(C)[C@@H](CC(C)C)C(=O)N[C@@H](C)C(=O)N[C@H](C)C(=O)N(C)[C@@H](CC(C)C)C(=O)N(C)[C@@H](CC(C)C)C(=O)N(C)[C@@H](C(C)C)C(=O)N1C
10 | 19 | 70 | C/C=C/C[C@@H](C)[C@@H](O)[C@H]1C(=O)N[C@@H](CC)C(=O)N(C)[C@H](SCCO)C(=O)N(C)[C@@H](CC(C)C)C(=O)N[C@@H](C(C)C)C(=O)N(C)[C@@H](CC(C)C)C(=O)N[C@@H](C)C(=O)N[C@H](C)C(=O)N(C)[C@@H](CC(C)C)C(=O)N(C)[C@@H](CC(C)C)C(=O)N(C)[C@@H](C(C)C)C(=O)N1C
11 | 6050 | 47 | C/C=C/C[C@@H](C)[C@@H](O)[C@H]1C(=O)N[C@@H](CC)C(=O)N(C)[C@H](SCCN(CC)CC)C(=O)N(C)[C@@H](CC(C)(C)O)C(=O)N[C@@H](C(C)C)C(=O)N(C)[C@@H](CC(C)C)C(=O)N[C@@H](C)C(=O)N[C@H](C)C(=O)N(C)[C@@H](CC(C)C)C(=O)N(C)[C@@H](CC(C)C)C(=O)N(C)[C@@H](C(C)C)C(=O)N1C
12 | 934 | 293 | C/C=C/C[C@@H](C)[C@@H](O)[C@H]1C(=O)N[C@@H](CC)C(=O)N(C)CC(=O)N(C)[C@@H](C[C@@H](C)CC)C(=O)N[C@@H](C(C)C)C(=O)N(C)[C@@H](CC(C)C)C(=O)N[C@@H](C)C(=O)N[C@H](C)C(=O)N(C)[C@@H](CC(C)C)C(=O)N(C)[C@@H](CC(C)C)C(=O)N(C)[C@@H](C(C)C)C(=O)N1C
13 | 165 | 80.5 | C/C=C/C[C@@H](C)[C@@H](O)[C@H]1C(=O)N[C@@H](CC)C(=O)N(C)[C@H](SCCn2ccnc2)C(=O)N(C)[C@@H](CC(C)C)C(=O)N[C@@H](C(C)C)C(=O)N(C)[C@@H](CC(C)C)C(=O)N[C@@H](C)C(=O)N[C@H](C)C(=O)N(C)[C@@H](CC(C)C)C(=O)N(C)[C@@H](CC(C)C)C(=O)N(C)[C@@H](C(C)C)C(=O)N1C
14 | 128 | 101 | C/C=C/C[C@@H](C)[C@@H](O)[C@H]1C(=O)N[C@@H](CC)C(=O)N(C)[C@H](SCCN2CCOCC2)C(=O)N(C)[C@@H](CC(C)C)C(=O)N[C@@H](C(C)C)C(=O)N(C)[C@@H](CC(C)C)C(=O)N[C@@H](C)C(=O)N[C@H](C)C(=O)N(C)[C@@H](CC(C)C)C(=O)N(C)[C@@H](CC(C)C)C(=O)N(C)[C@@H](C(C)C)C(=O)N1C
15 | 783 | – | C/C=C/C[C@@H](C)[C@@H](O)[C@H]1C(=O)N[C@@H](CC)C(=O)N(C)[C@H](CO)C(=O)N(C)[C@@H](CC(C)(C)O)C(=O)N[C@@H](C(C)C)C(=O)N(C)[C@@H](CC(C)C)C(=O)N[C@@H](C)C(=O)N[C@H](C)C(=O)N(C)[C@@H](CC(C)C)C(=O)N(C)[C@@H](CC(C)C)C(=O)N(C)[C@@H](C(C)C)C(=O)N1C
16 | – | 95 | C/C=C/C[C@@H](C)[C@@H](O)C1C(=O)N[C@@H](CC)C(=O)N(C)[C@H](CO)C(=O)N(C)[C@@H](CC(C)(C)O)C(=O)N[C@@H](C(C)C)C(=O)N(C)[C@@H](CC(C)C)C(=O)N[C@@H](C)C(=O)N[C@H](C)C(=O)N(C)[C@@H](CC(C)C)C(=O)N(C)[C@@H](CC(C)C)C(=O)N(C)[C@@H](C(C)C)C(=O)N1C (stereo not given in full)
17 | 166 | – | C/C=C/C[C@@H](C)[C@@H](O)[C@H]1C(=O)N[C@@H](CC)C(=O)N(C)CC(=O)N(C)[C@@H](CC(C)(C)O)C(=O)N[C@@H](C(C)C)C(=O)N(C)[C@@H](CC(C)C)C(=O)N[C@@H](C)C(=O)N[C@H](C)C(=O)N(C)[C@@H](CC(C)C)C(=O)N(C)[C@@H](CC(C)C)C(=O)N(C)[C@@H](C(C)C)C(=O)N1C
18 | – | 138 | C/C=C/C[C@@H](C)[C@@H](O)C1C(=O)N[C@@H](CC)C(=O)N(C)CC(=O)N(C)[C@@H](CC(C)(C)O)C(=O)N[C@@H](C(C)C)C(=O)N(C)[C@@H](CC(C)C)C(=O)N[C@@H](C)C(=O)N[C@H](C)C(=O)N(C)[C@@H](CC(C)C)C(=O)N(C)[C@@H](CC(C)C)C(=O)N(C)[C@@H](C(C)C)C(=O)N1C (stereo not given in full)
19 | – | 45 | C/C=C/C[C@@H](C)[C@@H](O)[C@H]1C(=O)N[C@@H](CC)C(=O)N(C)[C@H](SCCN(C)C)C(=O)N(C)[C@@H](CC(C)(C)O)C(=O)N[C@@H](C(C)C)C(=O)N(C)[C@@H](CC(C)C)C(=O)N[C@@H](C)C(=O)N[C@H](C)C(=O)N(C)[C@@H](CC(C)C)C(=O)N(C)[C@@H](CC(C)C)C(=O)N(C)[C@@H](C(C)C)C(=O)N1C [SCY 635]

Row | SMILES | IC50 [1] [nM] | IC50 [2] [nM]
20 | C/C=C/C[C@@H](C)[C@@H](O)[C@H]1C(=O)N[C@@H](CC)C(=O)N(C)[C@H](SC)C(=O)N(C)[C@@H](CC(C)(C)O)C(=O)N[C@@H](C(C)C)C(=O)N(C)[C@@H](CC(C)C)C(=O)N[C@@H](C)C(=O)N[C@H](C)C(=O)N(C)[C@@H](CC(C)C)C(=O)N(C)[C@@H](CC(C)C)C(=O)N(C)[C@@H](C(C)C)C(=O)N1C | 110 | 84
